Assay results: US11013696B2, “Lipids and lipid compositions for the delivery of active agents” (Novartis AG, priority 2013, dated 2021)

Legend:
[1] = Percent encapsulation of mRNA in lipid nanoparticles (Quant-iT Ribogreen); type: physicochemical; conditions: for % encapsulation mRNA Leptin: Table 2, leptin mRNA in LNP with the cationic lipid
Outline: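 LNPs made by T-junction mixing of ethanolic lipids (cationic lipid:DSPC:cholesterol:PEG lipid 40:10:38:2, N:P 4:1) with mRNA in citrate pH 5.8-6.0, then dialysed against PBS overnight at 4 °C. RiboGreen fluorescence (ex 480/em 520 nm) measured in TE ± 0.75% Triton X-100; encapsulation = (total − free)/total.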

[2] = Particle size and PDI of lipid nanoparticles by dynamic light scattering (Malvern Zetasizer); type: physicochemical
Excerpt: The lipid nanoparticles have a size of about 1 to about 2,500 nm, about 10 to about 1,500 nm, about 20 to about 1,000 nm, in a sub-embodiment about 50 to about 600 nm, in a sub-embodiment about 50 to about 400 nm, in a sub-embodiment about 50 to about 250 nm, and in a sub-embodiment about 50 to about 150 nm. Unless indicated otherwise, all sizes referred to herein are the average sizes (diameters) of the fully formed nanoparticle, as measured by dynamic light scattering on a Malvern Zetasizer. The nanoparticle sample is diluted in phosphate buffered saline (PBS) so that the count rate is approximately 200-400 kcts. The data is presented as a weighted average of the intensity measure.
Unless indicated otherwise, all PDIs referred to herein are the PDI of the fully formed nanoparticle, as measured by dynamic light scattering on a Malvern Zetasizer. The nanoparticle sample was diluted in phosphate buffered saline (PBS) so that the count rate was approximately 200-400 kcts. The data is presented in Table 3 as a weighted average of the intensity measure.
Unless indicated otherwise, all particle size measurements referred to in Table 3 are the Z-average particle size of the fully formed nanoparticle, as measured by dynamic light scattering on a Malvern Zetasizer. The nanoparticle sample was diluted in phosphate buffered saline (PBS) so that the count rate is approximately 200-400 kcts.

[3] = tested on: RSV F protein; assay: RSV immunogenicity: IgG titers after two IM immunizations with vA375 RNA expressing RSV-F in LNPs; type: in vivo, BALB/c mice; conditions: IM days 0 and 21, two weeks after two immunizations

Row | SMILES | % Encap. ([1]; FLuc mRNA) | % Encap. ([1]; Gluc mRNA) | % encapsulation mRNA Leptin [1] | % Encap. ([1]; hFIX mRNA) | % Encap. ([1]; hLeptin mRNA) | % Encap. ([1]; mEPO mRNA) | PDI ([2]; FLuc mRNA LNP) | Size ([2]; FLuc mRNA LNP) | PDI ([2]; FVII siRNA LNP) | Size ([2]; FVII siRNA LNP) | PDI ([2]; Gluc mRNA LNP) | Size ([2]; Gluc mRNA LNP) | PDI ([2]; hFIX mRNA LNP) | Size ([2]; hFIX mRNA LNP) | PDI ([2]; hLep plasmid LNP) | Size ([2]; hLep plasmid LNP) | PDI ([2]; hLeptin mRNA LNP) | Size ([2]; hLeptin mRNA LNP) | PDI ([2]; mEPO mRNA LNP) | Size ([2]; mEPO mRNA LNP) | also measured
1 | CCCCCCCCCCCCC(CCOC(=O)CCCCC(OCCCCCCCC)OCCCCCCCC)OC(=O)OCCCN(CC)CC (centres unmarked) [Example 16, 3-(((3-(diethylamino)propoxy)carbonyl)oxy)pentadecyl 6,6-bis(octyloxy)hexanoate] | 96.8% | 97.9% | 97.7% | 96.9% | 98.1% | 97.9% | 0.145 | 106.7 nm | 0.075 | 95.7 nm | 0.145 | 106.7 nm | 0.141 | 102.6 nm | 0.155 | 102.6 nm | 0.103 | 122.6 nm | 0.112 | 83.2 nm | PDI ([2]; pDNA LNP): 0.128; Size ([2]; pDNA LNP): 101.6 nm
2 | CCCCCCCCCCCCC(CCOC(=O)CCCCC(OCC(CC)CCCC)OCC(CC)CCCC)OC(=O)OCCCN(CC)CC (centres unmarked) [Example 18, 3-(((3-(diethylamino)propoxy)carbonyl)oxy)pentadecyl 6,6-bis((2-ethylhexyl)oxy)hexanoate] | – | – | 97.1% | – | – | – | – | – | – | – | – | – | – | – | – | – | – | – | – | – | Immunogenicity (2wp2, log10 IgG titers) ([3]; 0.1 ng vA375 RNA): 3.5 log10 IgG titers; Immunogenicity (2wp2, log10 IgG titers) ([3]; 1 ng vA375 RNA): 4.26 log10 IgG titers
3 | CCCCC/C=C\C/C=C\CCCCCCCCC(CCC(=O)OC(COC(=O)CCCCCCC)COC(=O)CCCCCCC)OC(=O)OCCCN(C)C (centres unmarked) [Example 94, 2-(((13Z,16Z)-4-(((3-(dimethylamino)propoxy)carbonyl)oxy)docosa-13,16-dienoyl)oxy)propane-1,3-diyl dioctanoate] | 93.7% | 95.9% | 98.1% | 96.9% | 98.1% | 96.4% | 0.093 | 129.2 nm | 0.073 | 122.6 nm | 0.113 | 76.9 nm | 0.079 | 148.3 nm | 0.153 | 109.8 nm | 0.101 | 119.1 nm | 0.099 | 108.5 nm | PDI ([2]; pDNA LNP): 0.152; Size ([2]; pDNA LNP): 123.5 nm
4 | CCCCCCCCCC(=O)OCCC(CC(CCCCCCCC)CCCCCCCC)OC(=O)OCCCN(C)C (centres unmarked) [Example 70, 3-(((3-(dimethylamino)propoxy)carbonyl)oxy)-5-octyltridecyl decanoate] | – | – | 98.3% | – | – | – | – | – | – | – | – | – | – | – | – | – | – | – | – | – | Immunogenicity (2wp2, log10 IgG titers) ([3]; 0.1 ng vA375 RNA): 3.90 log10 IgG titers; Immunogenicity (2wp2, log10 IgG titers) ([3]; 1 ng vA375 RNA): 4.37 log10 IgG titers
5 | CCCCCCCCCCCCC(CCOC(=O)CCCCC(COC(=O)CCCCCCC)COC(=O)CCCCCCC)OC(=O)OCCCN(CC)CC (centres unmarked) [Example 1, 2-(10-dodecyl-3-ethyl-8,14-dioxo-7,9,13-trioxa-3-azaoctadecan-18-yl)propane-1,3-diyl dioctanoate] | 94.7% | 97.3% | 97.1% | 94.0% | 97.1% | 95.8% | 0.100 | 108.8 nm | – | – | 0.093 | 84.7 nm | 0.082 | 95.5 nm | 0.138 | 109.8 nm | 0.071 | 128.1 nm | 0.073 | 104.1 nm | PDI ([2]; pDNA LNP): 0.135; Size ([2]; pDNA LNP): 110 nm; Immunogenicity (2wp2, log10 IgG titers) ([3]; 0.1 ng vA375 RNA): 3.98 log10 IgG titers; Immunogenicity (2wp2, log10 IgG titers) ([3]; 1 ng vA375 RNA): 4.22 log10 IgG titers
6 | CCCCC/C=C\C/C=C\CCCCCCCC(=O)OCC(COC(=O)CCCCCCC/C=C\C/C=C\CCCCC)OC(=O)CCC(CCCCCCCCCCCC)OC(=O)OCCCN(C)C (centres unmarked) [Example 80, (9Z,9′Z,12Z,12′Z)-2-((4-(((3-(dimethylamino)propoxy)carbonyl)oxy)hexadecanoyl)oxy)propane-1,3-diyl bis(octadeca-9,12-dienoate)] | 85.3% | – | – | – | – | 96.2% | 0.085 | 193.5 nm | 0.051 | 97.3 nm | – | – | – | – | – | – | – | – | 0.083 | 166.0 nm | –
